Columns and labels:
Type in all cases: functional
Settings in all cases: variant bovis BCG, 144 h, read-out: GI
[1] = system: Mycobacterium tuberculosis; assay: Growth inhibition of Mycobacterium bovis BCG at 200 ug/ml after 6 days by microplate alamar blue assay
[2] = system: Mycobacterium tuberculosis; assay: Growth inhibition of Mycobacterium bovis BCG at 1 ug/ml after 6 days by microplate alamar blue assay
[3] = system: Mycobacterium tuberculosis; assay: Growth inhibition of Mycobacterium bovis BCG at 0.5 ug/ml after 6 days by microplate alamar blue assay

Compound	inhibition of growth at 200 µg/mL [1] [%]	also measured
C#CCOc1cn([C@@H]2O[C@H](CO)[C@@H](O)[C@H]2F)c(=O)[nH]c1=O	98	
C#CCOc1cn([C@@H]2O[C@H](CO)[C@@H](O)[C@H]2F)c(=O)n(CC#C)c1=O	34	
NNC(=O)c1ccncc1 [ISONIAZID]		inhibition of growth at 1 µg/mL [2]: 100%
CO[C@H]1/C=C/O[C@@]2(C)Oc3c(C)c(O)c4c(O)c(c(/C=N/N5CCN(C)CC5)c(O)c4c3C2=O)NC(=O)/C(C)=C\C=C\[C@H](C)[C@H](O)[C@@H](C)[C@@H](O)[C@@H](C)[C@H](OC(C)=O)[C@@H]1C [RIFAMPIN]		inhibition of growth at 0.5 µg/mL [3]: 100%

Source: ChEMBL document CHEMBL3861999, “Investigation of C-5 alkynyl (alkynyloxy or hydroxymethyl) and/or N-3 propynyl substituted pyrimidine nucleoside analogs as a new class of antimicrobial agents” (Bioorg Med Chem, 2016)
